Paper PMC7038136 (2020)

Assays:
[1] = test system: sulfhydryl modified aptamer 31 (DNA, aptamer) ACGCATAGGGTGCGACCACATACGCCCCATGTATGTCCCTTGGTTGTGCCCTATGCGT; experiment: electrochemical impedance spectroscopy; settings: K+ (0.5 M KCl), 10 mM K3[Fe(CN)6]/K4[Fe(CN)6], PBS pH 7.0, 30 min
[2] = test system: Aptamer 203 (DNA, aptamer) ACGCATAGGGCAAGACAAACTGCGCCATTCAGCATGCTGTTCGGGTTGGCCTATGCGT; experiment: LSPR (OpenSPR), one-to-one kinetic model; settings: Na+ (29.2 g NaCl per 500 mL, about 1 M), Mg2+ (0.1 g MgCl2·6H2O per 500 mL, about 1 mM); immobilised compound; amine chip; phosphate buffer pH 7.0; aptamer as analyte, 2.5-40 nM
[3] = test system: Aptamer 123 (DNA, aptamer) ACGCATAGGGCAACCAGACCAGCCCCATCCCCATGTGACTTCTGTTTGGCCTATGCGT; experiment: LSPR (OpenSPR), one-to-one kinetic model; settings: Na+ (29.2 g NaCl per 500 mL, about 1 M), Mg2+ (0.1 g MgCl2·6H2O per 500 mL, about 1 mM); immobilised compound; amine chip; phosphate buffer pH 7.0; aptamer as analyte, 2.5-40 nM
[4] = test system: Aptamer 281 (DNA, aptamer) ACGCATAGGGTGTGCATCAGCAGTACCAACGACGTTGTGGTGTGCTCATCCTATGCGT; experiment: LSPR (OpenSPR), one-to-one kinetic model; settings: Na+ (29.2 g NaCl per 500 mL, about 1 M), Mg2+ (0.1 g MgCl2·6H2O per 500 mL, about 1 mM); immobilised compound; amine chip; phosphate buffer pH 7.0; aptamer as analyte, 2.5-40 nM
[5] = test system: Aptamer 31 (DNA, aptamer) ACGCATAGGGTGCGACCACATACGCCCCATGTATGTCCCTTGGTTGTGCCCTATGCGT; experiment: LSPR (OpenSPR), one-to-one kinetic model; settings: Na+ (29.2 g NaCl per 500 mL, about 1 M), Mg2+ (0.1 g MgCl2·6H2O per 500 mL, about 1 mM); immobilised compound; amine chip; phosphate buffer pH 7.0; aptamer as analyte, 2.5-40 nM
[6] = test system: Aptamer 281 (DNA, aptamer) ACGCATAGGGTGTGCATCAGCAGTACCAACGACGTTGTGGTGTGCTCATCCTATGCGT; experiment: AuNP colorimetric assay (A620/A520 ratio > 1.1); settings: 1.0 M NaCl added after incubation to aggregate AuNPs; 0.4 μM aptamer, 1 μg/mL DEHP, 30 min; room temperature
[7] = test system: Aptamer 123 (DNA, aptamer) ACGCATAGGGCAACCAGACCAGCCCCATCCCCATGTGACTTCTGTTTGGCCTATGCGT; experiment: AuNP colorimetric assay (A620/A520 ratio > 1.1); settings: 1.0 M NaCl added after incubation to aggregate AuNPs; 0.4 μM aptamer, 1 μg/mL DEHP, 30 min; room temperature
[8] = test system: Aptamer 203 (DNA, aptamer) ACGCATAGGGCAAGACAAACTGCGCCATTCAGCATGCTGTTCGGGTTGGCCTATGCGT; experiment: AuNP colorimetric assay (A620/A520 ratio > 1.1); settings: 1.0 M NaCl added after incubation to aggregate AuNPs; 0.4 μM aptamer, 1 μg/mL DEHP, 30 min; room temperature
[9] = test system: Aptamer 31 (DNA, aptamer) ACGCATAGGGTGCGACCACATACGCCCCATGTATGTCCCTTGGTTGTGCCCTATGCGT; experiment: AuNP colorimetric assay (A620/A520 ratio > 1.1); settings: 1.0 M NaCl added after incubation to aggregate AuNPs; 0.4 μM aptamer, 1 μg/mL DEHP, 30 min; room temperature

Row | binding ([1]; only 30.518 pg/mL tested) | SMILES | further results
1 | no | CC(C)COC(=O)c1ccccc1C(=O)OCC(C)C | –
2 | – | CCCCC(CC)COC(=O)c1ccc(OCCCC(=O)O)cc1C(=O)OCC(CC)CCCC (stereo not drawn) | Kd [2]: 2.68 ± 0.2 nM; Kd [3]: 5.33 ± 0.01 nM; Kd [4]: 43 ± 0.7 nM; Kd [5]: 2.26 ± 0.06 nM
3 | – | CCCCC(CC)COC(=O)c1ccccc1C(=O)OCC(CC)CCCC (stereo not drawn) | binding [6]: yes; binding [7]: yes; binding ([1]; 30.518 pg/mL): yes; binding [8]: yes; binding [9]: yes
4 | no | CCCCCCCCOC(=O)c1ccccc1C(=O)OCCCCCCCC | –
5 | no | CCCCCCOC(=O)c1ccccc1C(=O)OCCCCCC | –
6 | no | CCCCOC(=O)c1ccccc1C(=O)OCCCC | –
7 | no | CCCCOC(=O)c1ccccc1C(=O)OCc1ccccc1 | –
8 | no | CCOC(=O)c1ccccc1C(=O)OCC | –
9 | no | COC(=O)c1ccccc1C(=O)OC | –
10 | no | O=C(OC1CCCCC1)c1ccccc1C(=O)OC1CCCCC1 | –
11 | no | O=C(Oc1ccccc1)c1ccccc1C(=O)Oc1ccccc1 | –
